In EP1605929B1, “NON-STEROIDAL ANTI-INFLAMMATORY DRUG DOSING REGIMEN” (McNeil-PPC, Inc., priority 2003, dated 2004):

Key:
[1] = Therapeutic duration of action of an effective immediate release dose, from dosing instructions in product labeling
Protocol: As used herein, "ATDAIRD" shall mean the average therapeutic duration of action of an effective immediate release dose" of a particular active ingredient. For example, the typical duration of action of an immediate release dose of ibuprofen or ketoprofen is about 4 to about 6 hours. […] The therapeutic duration of action of a particular active ingredient can readily be determined from the dosing instructions in the labeling for immediate release products containing that particular active ingredient.

[2] = tested on: moderate to severe post-operative dental pain; test: PK/PD dental pain study, pain relief scores and pain intensity differences over a 12 hour observation period; type: in vivo, human
Protocol: A double-blind, randomized, parallel, placebo-controlled, single center, PK/PD dental pain study was conducted over a 12 hour observation period to evaluate the pharmacokinetic, pharmacodynamic, efficacy and safety profiles of certain ibuprofen dosing regimens. Specifically, a single dose of 600 mg ibuprofen extended release caplets was compared with equivalent total doses of ibuprofen immediate release 200 mg caplets administered in three different dosing regimens as well as placebo in the treatment of moderate to severe post-operative dental pain.
The ibuprofen was administered as ibuprofen extended release 600 mg caplets or one or more ibuprofen immediate release 200 mg caplets.
The patients evaluated in this study consisted of male or non-pregnant and non-lactating female out-patient volunteers, 16 years of age or older, complaining of moderate to severe pain following the surgical extraction of three or four third molars with at least one partial or complete bony impacted third mandibular molar. The term impacted included: partial bony impaction, bony impaction, or complicated bony impaction. A total of 210 patients were entered into the study. 208 patients were eligible for the efficacy analyses.
All patients who met the entrance criteria were enrolled in one of two study sub-groups. One sub-group of patients had both pharmacokinetic and pharmacodynamic evaluation (PK group). The other sub-group of patients had only the analgesic efficacy evaluations (non-PK group). A separate randomization schedule was used for each of the two sub-groups. Patients from both subgroups were assigned at random to one of the five following treatments:
Patients' assessments of pain intensity and pain relief as well as blood samples for plasma ibuprofen analysis were obtained at the study site at hours 0, 0.25, 0.5, 1, 1.5, 2, 2.5, 3, 4, 4.5, 5, 6, 7, 8, 8.5, 9, 10, 11 and 12. A stopwatch technique was used to measure the onset of meaningful pain relief.

SMILES	ATDAIRD (average therapeutic duration of action of an effective immediate release dose) [1]	pain relief ([2]; 400/200/0 administration (immediate release, 400 mg at 0 hour; 200 mg at 4 hours), entire 12 hour study period, Figure 2)	pain relief ([2]; 400/200/0 treatment (immediate release, 400 mg at 0 hour; 200 mg at 4 hours), first four hours, Figure 2)	pain relief scores ([2]; 400/200/0 treatment, 4 to 12 hour interval, no further ibuprofen after the first four hours, Figure 2)	pain intensity differences (PID) ([2]; 400/200/0 treatment, 12 hour study period, particularly after the four hour mark, Figure 3)	pain relief ([2]; 600/0/0 immediate release treatment (600 mg single dose at 0 hour), first four hours, Figure 2)
CC(C)Cc1ccc(C(C)C(=O)O)cc1 (centres unmarked) [ibuprofen, 2-(4-isobutylphenyl)-propionic acid]	5 h	excellent pain relief	superior pain relief over the other treatments	highest pain relief scores	best PID	superior pain relief over the other treatments
CC(C(=O)O)c1cccc(C(=O)c2ccccc2)c1 (centres unmarked) [ketoprofen]	5 h	–	–	–	–	–
COc1ccc2cc([C@H](C)C(=O)O)ccc2c1 [naproxen]	10 h	–	–	–	–	–
